The text below walks through data of ChEMBL document CHEMBL1125141, “Structure-activity relationships of N2-substituted guanines as inhibitors of HSV1 and HSV2 thymidine kinases” (J Med Chem, 1990).

Each structure is given as a SMILES string.

The target in the first assay is T1, Thymidine kinase (Human alphaherpesvirus 1, UniProt Q9QNF7).
T1 sequence (Q9QNF7 whole entry): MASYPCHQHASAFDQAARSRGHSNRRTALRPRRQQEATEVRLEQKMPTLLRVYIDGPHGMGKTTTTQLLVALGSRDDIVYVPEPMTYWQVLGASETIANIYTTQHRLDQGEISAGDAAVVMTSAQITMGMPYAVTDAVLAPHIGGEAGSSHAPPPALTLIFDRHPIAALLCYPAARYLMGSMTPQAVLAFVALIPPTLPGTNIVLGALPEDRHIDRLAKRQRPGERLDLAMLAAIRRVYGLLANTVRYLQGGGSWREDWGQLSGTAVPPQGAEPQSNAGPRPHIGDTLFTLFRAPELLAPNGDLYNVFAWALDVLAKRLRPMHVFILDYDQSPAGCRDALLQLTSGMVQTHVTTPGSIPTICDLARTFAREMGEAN
The assay can be described thus: Inhibition of TdR phosphorylation using thymidine kinase assay for herpes simplex virus type 1. The assay is classed as functional.
Usually IC50 stands for the midpoint of a concentration-inhibition curve. Turning to `CCCCCCNc1nc(O)c2[nH]cnc2n1`, the half-maximal inhibitory concentration (IC50) is 55 µM.

Regarding `OCCCCCNc1nc(O)c2[nH]cnc2n1`, the half-inhibitory concentration (IC50) stood at 100 µM.

`O=c1[nH]c(NCc2ccc(Cl)cc2)nc2nc[nH]c12` returned an IC50 of 8.5 µM. On the same count and under the same terms, the figure for `O=c1[nH]c(Nc2ccc(O)cc2)nc2nc[nH]c12` is 140 µM. On the same count and under the same terms, the result for `Cc1ccc(Nc2nc3nc[nH]c3c(=O)[nH]2)cc1` reads 50 µM; that for `CCc1cccc(Nc2nc3nc[nH]c3c(=O)[nH]2)c1`, 2.5 µM. On the same count and under the same terms, the figure for `Oc1[nH]c(Nc2ccc(C(F)(F)F)cc2)nc2ncnc1-2` is 30 µM; for `CCCCc1ccc(Nc2nc3nc[nH]c3c(=O)[nH]2)cc1` it is 50 µM; for `Oc1[nH]c(Nc2ccc3ccccc3c2)nc2ncnc1-2` it is 40 µM. Compound `O=c1[nH]c(Nc2ccc(F)c(F)c2)nc2nc[nH]c12` came in with an IC50 of 50 µM.

Regarding `O=c1nc(Nc2cccc(CO)c2)[nH]c2nc[nH]c12`, the IC50 was determined as 25 µM. Take `Oc1[nH]c(Nc2ccc(Br)c(Br)c2)nc2ncnc1-2`: it took 3 µM to reach half-maximal inhibition (IC50). `Oc1[nH]c(Nc2cccc(Cl)c2)nc2ncnc1-2` yielded a half-inhibitory concentration (IC50) of 1.3 µM.

Compound `Oc1[nH]c(Nc2ccc(F)c(Cl)c2)nc2ncnc1-2` gave an IC50 of 8 µM. Take `O=c1[nH]c(Nc2cccc(C(F)(F)F)c2)nc2nc[nH]c12`: the IC50 was found to be 0.15 µM. Take `Oc1[nH]c(Nc2ccc(Br)cc2)nc2ncnc1-2`: the IC50 came out at 1 µM.

The next assay concerns the target T1, Thymidine kinase. Nature of the assay: Inhibition of TdR phosphorylation using thymidine kinase (TK) assay for herpes simplex virus type 1 (HSV-1). The assay is classed as functional.
What is called Ki is the dissociation constant of the complex between target and ligand, obtained from inhibition or displacement. A higher Ki goes with lower affinity. Compound `CCCCCCNC1=NC(=O)C2N=CN([C@H]3C[C@H](O)[C@@H](CO)O3)C2=N1` (some centres not stated) showed a Ki of 2600 nM.
